This note sets out measurements from ChEMBL document CHEMBL1201862, “PubChem BioAssay data set” (2004).

Test systems include NCI-H522; TK-10; ACHN; HOP-92; MCF7; SW-620; SNB-19; KM12; HCT-15; HCT-116; SF-539; CAKI-1; SK-MEL-28; NCI/ADR-RES; RXF 393; SN12C; A549; IGROV-1; SF-295; Hs-578T.
Common to all, as to assay: NCI anticancer screen, dose series, 48 h

SMILES strings stand for the structures.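 Step 1: Grow cells in 96-well plates. Step 2: Expose to compound for 48 hours at 5 concentrations. Step 3: Interpolate endpoints linearly; if unreached, use highest concentration. GI50 is the concentration that inhibits growth by half.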 Activity calls are given as the source filed them. No stated cut-off is given here; in the data, active = GI50 up to about 1.1 µM and inactive = higher.

With `CC1C(=O)N=C2C(=CN(Cc3ccccc3)c3ccccc32)C(=O)N1C` (stereo not given), the GI50 is 29.1 µM (inactive) in the test on NCI-H522; > 100 µM (inactive) in the test on TK-10; > 100 µM (inactive) with ACHN; > 100 µM (inactive) with HOP-92; > 100 µM (inactive) in the test with MCF7; > 100 µM (inactive) with SW-620. The GI50 with SNB-19 was > 100 µM (inactive); in the test with KM12, > 100 µM (inactive); with HCT-15 it was over 100 µM; in the test on HCT-116, > 100 µM (inactive); in the test with SF-539, > 100 µM (inactive); with CAKI-1, > 100 µM (inactive). The GI50 in the test on SK-MEL-28, in the test with NCI/ADR-RES, in the test with RXF 393, with SN12C, in the test on A549 and with IGROV-1 was > 100 µM (inactive) in each case.

On to `OC(CC(O)(C(F)(F)F)C(F)(F)F)c1ccc(C(O)CC(O)(C(F)(F)F)C(F)(F)F)cc1` (stereo not given), for which the GI50 with NCI-H522 is 18.3 µM (inactive); in the test on ACHN, 14.4 µM (inactive); in the test with HOP-92, 13 µM (inactive); with SW-620, 19.2 µM (inactive); with SNB-19 it was 17.1 µM (inactive); in the test on SF-295, 18.2 µM (inactive). Further, the GI50 in the test on HCT-15 was 20.1 µM; in the test with HCT-116, 11.8 µM (inactive); in the test with SF-539 it was 15.7 µM (inactive); in the test on CAKI-1, 12.7 µM (inactive); in the test on SK-MEL-28, 16 µM (inactive); in the test with NCI/ADR-RES, 14.6 µM (inactive). Also, the GI50 with RXF 393 was 15 µM (inactive); with A549, 14.4 µM (inactive); in the test with Hs-578T, 22 µM (inactive); with IGROV-1 it was 10.9 µM (inactive).

In the case of `C(CCCCc1nnc(N2CCCCC2)o1)CCCc1nnc(N2CCCCC2)o1`, the GI50 in the test with NCI-H522, in the test with TK-10, in the test on ACHN, in the test with HOP-92, in the test with MCF7 and with SW-620 was > 100 µM (inactive) in each case. For the same compound, the GI50 in the test with SNB-19 was > 100 µM (inactive); in the test with SF-295, > 100 µM (inactive); in the test on KM12 it was > 100 µM (inactive); in the test on HCT-15 it was over 100 µM; with HCT-116, > 100 µM (inactive); with SF-539 it was > 100 µM (inactive). The GI50 with CAKI-1, in the test on SK-MEL-28, in the test on NCI/ADR-RES, with RXF 393, with SN12C and in the test on A549 was > 100 µM (inactive) throughout. For the same compound, the GI50 with IGROV-1 was > 100 µM (inactive).

As to `CN1C(=O)C(C(=O)Nc2ccccn2)C2C[C@@]1(C)Oc1ccccc12` (stereo not given in full), the GI50 with NCI-H522 was > 100 µM (inactive); in the test on TK-10 it was > 100 µM (inactive); with ACHN, 0.861 µM (active); with HOP-92, > 100 µM (inactive); in the test with SW-620, > 100 µM (inactive); in the test with SNB-19, > 100 µM (inactive). Also, the GI50 was > 100 µM (inactive) in the test with SF-295; > 100 µM (inactive) in the test with KM12; over 100 µM in the test with HCT-15; > 100 µM (inactive) in the test on HCT-116; > 100 µM (inactive) in the test with CAKI-1; > 100 µM (inactive) in the test with SK-MEL-28. The GI50 with NCI/ADR-RES, in the test with RXF 393, in the test on A549, in the test on Hs-578T and in the test on IGROV-1 was > 100 µM (inactive) throughout.

Turning to `COc1ccc(/C=C2\CSC/C(=C\c3ccc(OC)c(OC)c3OC)C2=O)c(OC)c1OC`, the GI50 in the test with TK-10 is 31.6 µM (inactive); with ACHN, 16.9 µM (inactive); with HOP-92, 35.6 µM (inactive); with MCF7, 65 µM (inactive); in the test with SW-620, 20.6 µM (inactive); in the test with SNB-19, > 100 µM (inactive). Also, the GI50 in the test on SF-295 is 25.4 µM (inactive); with KM12, 32.4 µM (inactive); in the test on HCT-15, 25.6 µM; in the test on HCT-116 it was 17 µM (inactive); with SF-539 it was 26.4 µM (inactive); with SK-MEL-28 it was 28.1 µM (inactive). The GI50 was 23.1 µM (inactive) with NCI/ADR-RES; 15.6 µM (inactive) with RXF 393; 24.2 µM (inactive) with SN12C; > 100 µM (inactive) with A549; 37.8 µM (inactive) in the test on IGROV-1.

In the case of `O=C(CCCCCCCCC(=O)NN1C(=O)/C(=C\c2ccc(O)c(O)c2)SC1c1ccc(Cl)cc1)NN1C(=O)/C(=C\c2ccc(O)c(O)c2)SC1c1ccc(Cl)cc1` (stereo not given), the GI50 in the test on NCI-H522 was 2.87 µM (inactive); in the test with TK-10 it was 25.8 µM (inactive); in the test on ACHN it was 18.3 µM (inactive); in the test on HOP-92, 11.5 µM (inactive); in the test on MCF7, 38.8 µM (inactive); in the test with SW-620 it was 56.5 µM (inactive). The GI50 is 16.9 µM (inactive) in the test on SNB-19; 16.2 µM (inactive) in the test on SF-295; 23.8 µM (inactive) with KM12; 13.4 µM in the test on HCT-15; 24.6 µM (inactive) in the test on HCT-116; 13.4 µM (inactive) in the test on SF-539. The GI50 was 9.12 µM (inactive) in the test with CAKI-1; > 54.7 µM (inactive) in the test with SK-MEL-28; 28.8 µM (inactive) in the test on NCI/ADR-RES; 15.8 µM (inactive) with RXF 393; 41.7 µM (inactive) in the test on SN12C; 21.3 µM (inactive) in the test with A549. Besides, the GI50 in the test with IGROV-1 was 2.83 µM (inactive).

For the compound `CCO[C@@]1(COCc2ccccc2)OC(=O)C[C@@H]1N1C(=O)OC[C@@H]1c1ccccc1`, the GI50 is 84.3 µM (inactive) with NCI-H522; > 100 µM (inactive) in the test on TK-10; > 100 µM (inactive) with ACHN; > 100 µM (inactive) in the test with HOP-92; > 100 µM (inactive) in the test with MCF7; > 100 µM (inactive) with SW-620. Also, the GI50 in the test with SNB-19 was > 100 µM (inactive); with SF-295 it was > 100 µM (inactive); with KM12, 32.5 µM (inactive); in the test on HCT-15, over 100 µM; with HCT-116, > 100 µM (inactive); with SF-539, > 100 µM (inactive). The GI50 in the test with CAKI-1 is 25.8 µM (inactive); in the test on SK-MEL-28, > 100 µM (inactive); with NCI/ADR-RES, > 100 µM (inactive); in the test on RXF 393 it was > 100 µM (inactive); with SN12C, > 100 µM (inactive); with A549, > 100 µM (inactive). In the test with IGROV-1, the GI50 is > 100 µM (inactive).

In the case of `COc1ccc(-c2nc(SCC(=O)N/N=C/c3ccc(N(C)C)cc3)[nH]c2-c2ccc(OC)cc2)cc1`, the GI50 in the test on NCI-H522 is 31.3 µM (inactive); in the test on TK-10, > 100 µM (inactive); in the test on ACHN it was 51.9 µM (inactive); in the test on HOP-92, > 100 µM (inactive); in the test with MCF7, 13.5 µM (inactive); in the test on SW-620 it was 48 µM (inactive). Further, the GI50 was > 100 µM (inactive) in the test on SNB-19; 37 µM (inactive) in the test on SF-295; 32.6 µM (inactive) in the test with KM12; 46.3 µM with HCT-15; 37.9 µM (inactive) in the test on HCT-116; > 100 µM (inactive) with SF-539. For the same compound, the GI50 was > 100 µM (inactive) with CAKI-1; > 100 µM (inactive) with SK-MEL-28; > 100 µM (inactive) in the test with NCI/ADR-RES; 33.4 µM (inactive) in the test with RXF 393; 82 µM (inactive) in the test with SN12C; 17.6 µM (inactive) in the test on A549. Also, in the test on IGROV-1, the GI50 is > 100 µM (inactive).

In the case of `CC(CO)C1=CC(C#CCOCc2ccccc2)N(C(=O)Oc2ccccc2)c2ccccc21` (stereo not given), the GI50 in the test with NCI-H522 is 7.73 µM (inactive); in the test with TK-10, 48.1 µM (inactive); in the test on ACHN, 6.9 µM (inactive); in the test on HOP-92, 7.69 µM (inactive); with SW-620, 45.5 µM (inactive); with SNB-19, 32.5 µM (inactive). Also, the GI50 was 7.24 µM (inactive) with SF-295; 14.9 µM (inactive) in the test with KM12; 5.04 µM in the test on HCT-15; 14.8 µM (inactive) with HCT-116; 41 µM (inactive) in the test on SF-539; 18.7 µM (inactive) with CAKI-1. Besides, the GI50 in the test on SK-MEL-28 is 54.5 µM (inactive); in the test on NCI/ADR-RES it was 8.89 µM (inactive); with RXF 393 it was 3.33 µM (inactive); in the test with SN12C it was 15.9 µM (inactive); in the test with A549 it was 9.98 µM (inactive); in the test on Hs-578T, 14.3 µM (inactive). In addition, the GI50 with IGROV-1 was 28.2 µM (inactive).

Take `CC(C)C1=CC23CCC4C(C)(C(=O)O)CCCC4(C)C2CC1C(C(=O)O)C3C(=O)O` (stereo not given): the GI50 in the test on NCI-H522, in the test with TK-10, in the test on ACHN, in the test with HOP-92, with SW-620 and in the test with SNB-19 was > 100 µM (inactive) throughout. For the same compound, the GI50 in the test with SF-295 was > 100 µM (inactive); in the test with KM12, > 100 µM (inactive); in the test on HCT-15, over 100 µM; in the test on HCT-116 it was > 100 µM (inactive); with CAKI-1, > 100 µM (inactive); with SK-MEL-28 it was > 100 µM (inactive). The GI50 in the test with NCI/ADR-RES, in the test on RXF 393, with SN12C, with A549, with Hs-578T and with IGROV-1 was > 100 µM (inactive) in each case.

As for `O=C1N[C@H]2[C@H](O)[C@H](O)[C@@H](O)[C@H](O)[C@@H]2c2cc3c(c(O)c21)OCO3` [PANCRATISTATIN], the GI50 is 0.0326 µM (active) in the test with NCI-H522; 0.65 µM (active) in the test with TK-10; 0.673 µM (active) in the test with ACHN; 0.0316 µM (active) in the test on HOP-92; 0.0369 µM (active) in the test on MCF7; 0.0386 µM (active) in the test with SW-620. Moreover, the GI50 is 0.0301 µM (active) in the test with SNB-19; 0.0469 µM (active) in the test on SF-295; 0.0393 µM (active) in the test with KM12; 0.045 µM in the test with HCT-15; 0.0297 µM (active) with HCT-116; 0.037 µM (active) in the test with SF-539. In addition, the GI50 is 0.0331 µM (active) in the test on CAKI-1; 0.0414 µM (active) in the test with SK-MEL-28; 0.0622 µM (active) in the test with NCI/ADR-RES; 0.0434 µM (active) with RXF 393; 0.0365 µM (active) in the test on SN12C; 0.0893 µM (active) with A549. Moreover, the GI50 in the test with IGROV-1 was 0.0516 µM (active).
